Our source for the Activity and IC50 values is ChEMBL document CHEMBL1128107, “Amino acid-derived piperidides as novel CCKB ligands with anxiolytic-like properties” (Bioorg Med Chem Lett, 1995).

Assay [1] concerns Mus musculus. Kind of assay: In vivo anxiolytic activity in mouse upon ip administration; less affinity and selectivity. In kind it is functional, organism-based.
The subject of the next assay is NCI-H345. The assay can be described thus: Ability to block CCK-8-induced calcium mobilization in NCI-H345 cells. The note with it: Homo sapiens. Format: functional, cell-based.
In assay [2] the target is T1, Cholecystokinin receptor type A (Cavia porcellus, UniProt Q63931).
T1 sequence (Q63931 whole entry): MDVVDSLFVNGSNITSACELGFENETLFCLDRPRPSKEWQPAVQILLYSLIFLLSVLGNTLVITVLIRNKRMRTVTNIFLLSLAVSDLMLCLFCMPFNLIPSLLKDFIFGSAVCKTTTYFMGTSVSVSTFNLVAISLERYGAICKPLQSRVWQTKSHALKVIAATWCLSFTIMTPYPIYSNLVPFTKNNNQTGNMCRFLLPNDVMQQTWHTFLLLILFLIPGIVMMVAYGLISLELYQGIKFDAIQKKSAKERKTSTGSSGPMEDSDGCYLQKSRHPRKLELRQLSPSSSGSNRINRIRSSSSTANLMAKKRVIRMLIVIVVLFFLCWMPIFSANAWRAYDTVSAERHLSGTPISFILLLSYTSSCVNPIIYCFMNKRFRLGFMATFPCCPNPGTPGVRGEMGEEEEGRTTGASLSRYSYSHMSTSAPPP
Kind of assay: Inhibitory activity towards binding of [125I]Bolton-Hunter-CCK-8 to CCKA receptor in guinea pig pancreatic tissue.

In assay [3] the test system is Mus musculus. Kind of assay: In vivo anxiolytic activity in mouse upon ip administration; significant activity. In kind it is functional, organism-based.

Calls of active or inactive are those of the source. The calls are words filed in the database; no cut-off is given here.

Turning to `Cc1cccc(NC(=O)N[C@H](CCC(=O)N2CCCC2)C(=O)N2CCC(C(=O)c3ccccc3)CC2)c1`, in the assay on Mus musculus [1], the Activity result is “Weak activity”. Further, the IC50 was 251 nM in the assay with NCI-H345 and 1900 nM in assay [2].

In the case of `Cc1cccc(NC(=O)N[C@H](COC(=O)N2CCCC2)C(=O)N2CCC(C(=O)c3ccccc3)CC2)c1`, in the assay with Mus musculus [3], the result was Active. For the same compound, the figures for the IC50 (with NCI-H345; in assay [2]) were 220 nM and 1400 nM, respectively.

Compound `Cc1cccc(NC(=O)N[C@H](CC(C)C)C(=O)N2CCC(C(=O)c3ccccc3)CC2)c1` came in with an IC50 in assay [2] of 2000 nM.

As to `Cc1cccc(NC(=O)N[C@H](CCC(=O)OCc2ccccc2)C(=O)N2CCC(C(=O)Nc3ccccc3)CC2)c1`, the IC50 in assay [2] was found to be 690 nM.

For the compound `Cc1cccc(NC(=O)N[C@H](CC(=O)OCc2ccccc2)C(=O)N2CCC(C(=O)c3ccccc3)CC2)c1`, the IC50 in assay [2] is 1300 nM.

Compound `CC(=O)C1CCN(C(=O)[C@@H](COCc2ccccc2)NC(=O)Nc2cccc(C)c2)CC1` showed an IC50 in assay [2] of 1300 nM.

As for `Cc1cccc(NC(=O)N[C@H](COCc2ccccc2)C(=O)N2CCC(C(=O)Nc3ccccc3)CC2)c1`, the IC50 in assay [2] is 500 nM.

Turning to `Cc1cccc(NC(=O)N[C@H](COCc2ccccc2)C(=O)N2CCC(C(=O)c3ccc(F)cc3)CC2)c1`, the IC50 in assay [2] is 420 nM.

For `Cc1cccc(NC(=O)N[C@H](CCC(=O)OCc2ccccc2)C(=O)N2CCC(NC(=O)c3ccccc3)CC2)c1`, the IC50 in assay [2] worked out at 970 nM.

Compound `Cc1cccc(NC(=O)N[C@@H](C(=O)N2CCC(C(=O)c3ccccc3)CC2)[C@@H](C)OCc2ccccc2)c1` displayed a 50% inhibitory concentration (IC50) in assay [2] of 1300 nM.

On to `Cc1cccc(NC(=O)N[C@H](CCC(=O)O)C(=O)N2CCC(C(=O)c3ccccc3)CC2)c1`, for which the IC50 in assay [2] was 1800 nM.

For the compound `Cc1cccc(NC(=O)N[C@H](COC(=O)N2CCCC2)C(=O)N2CCC(C(=O)Nc3ccccc3)CC2)c1`, the result with Mus musculus [3] was Active. The concentration for half-maximal inhibition (IC50) in the assay with NCI-H345 was determined as 115 nM; in assay [2], 250 nM.

On to `Cc1cccc(NC(=O)N[C@H](CCCc2ccccc2)C(=O)N2CCC(C(=O)c3ccccc3)CC2)c1`, for which the IC50 in assay [2] came out at 1800 nM.

In the case of `Cc1cccc(NC(=O)N[C@H](COC(=O)Nc2ccccc2)C(=O)N2CCC(C(=O)c3ccccc3)CC2)c1`, the IC50 in assay [2] worked out at 290 nM.

In assay [2], `Cc1cccc(NC(=O)N[C@H](COC(=O)N(C)C)C(=O)N2CCC(C(=O)c3ccccc3)CC2)c1` gave an IC50 of 1300 nM.

In turn, `Cc1cccc(NC(=O)N[C@H](COC(=O)N2CCOCC2)C(=O)N2CCC(C(=O)c3ccccc3)CC2)c1` had an IC50 in assay [2] of 1500 nM.

Take `Cc1cccc(NC(=O)N[C@H](CCC(=O)OCc2ccccc2)C(=O)N2CCN(C(=O)c3ccccc3)CC2)c1`: the IC50 in assay [2] was 1500 nM.

In assay [2], `Cc1cccc(NC(=O)N[C@H](CCc2ccccc2)C(=O)N2CCC(C(=O)c3ccccc3)CC2)c1` had a half-maximal inhibitory concentration (IC50) of 2200 nM.

`Cc1cccc(NC(=O)N[C@H](COCc2ccccc2)C(=O)N2CCCC(C(=O)Nc3ccccc3)C2)c1` (stereo partly specified): the IC50 in assay [2] was determined as 2200 nM.

In assay [2], `Cc1cccc(NC(=O)N[C@H](COCc2ccccc2)C(=O)N2CCC(Cc3ccccc3)CC2)c1` yielded a 50% inhibitory concentration (IC50) of 3400 nM.

For `Cc1cccc(NC(=O)N[C@@H](CC(C)C)C(=O)N2CCC(C(=O)c3ccccc3)CC2)c1`, in assay [2], the IC50 worked out at 5200 nM.

As to `CC(C)C[C@H](NC(=O)[C@H](Cc1c[nH]c2ccccc12)NC(=O)OC(C)(C)C)C(=O)N1CCC(Cc2ccccc2)CC1`, the concentration for half-maximal inhibition (IC50) in assay [2] was found to be 200 nM.

In turn, `Cc1cccc(NC(=O)N[C@H](CSCc2ccccc2)C(=O)N2CCC(C(=O)c3ccccc3)CC2)c1` showed an IC50 in assay [2] of 1300 nM.

`CCCC[C@@H](NC(=O)Nc1cccc(C)c1)C(=O)N1CCC(C(=O)c2ccccc2)CC1` came in with an IC50 in assay [2] of 2500 nM.

In assay [2], `Cc1cccc(NC(=O)N[C@H](COCc2ccccc2)C(=O)N2CCC(C(=O)c3ccccc3)CC2)c1` returned an IC50 of 2400 nM.

In assay [2], `CC(C)C[C@H](NC(=O)[C@H](Cc1c[nH]c2ccccc12)NC(=O)OC(C)(C)C)C(=O)N1CCC(C(=O)c2ccccc2)CC1` had an IC50 of 640 nM.

With `Cc1cccc(NC(=O)N[C@H](C[S+]([O-])Cc2ccccc2)C(=O)N2CCC(C(=O)c3ccccc3)CC2)c1` (stereo partly specified), the IC50 in assay [2] came out at 800 nM.

Compound `Cc1cccc(NC(=O)N[C@H](Cc2c[nH]c3ccccc23)C(=O)N2CCC(C(=O)c3ccccc3)CC2)c1` yielded an IC50 in assay [2] of 1400 nM.

Turning to `CC(C)(C)OC(=O)N[C@@H](Cc1c[nH]c2ccccc12)C(=O)N1CCC(C(=O)c2ccccc2)CC1`, the half-inhibitory concentration (IC50) in assay [2] is 4500 nM.

In the case of `CC(Cc1c[nH]c2ccccc12)(NC(=O)OC1[C@H]2C[C@@H]3C[C@@H](C[C@H]1C3)C2)C(=O)N1CCC(C(=O)c2ccccc2)CC1` (stereo partly specified), the IC50 in assay [2] worked out at 1700 nM.

Take `CC(C)C[C@H](NC(=O)OC(C)(C)C)C(=O)N1CCC(C(=O)c2ccccc2)CC1`: in assay [2], the IC50 is more than 2100 nM.

In turn, `Cc1cccc(NC(=O)N[C@H](CCC(=O)OCc2ccccc2)C(=O)N2CCC(C(=O)c3ccccc3)CC2)c1` yielded an IC50 in assay [2] of 900 nM.

In turn, `Cc1cccc(NC(=O)N[C@H](CS(=O)(=O)Cc2ccccc2)C(=O)N2CCC(C(=O)c3ccccc3)CC2)c1` yielded an IC50 in assay [2] of 1100 nM.

Consider `CC1(C)C2CCC1(COC(=O)N[C@](C)(Cc1c[nH]c3ccccc13)C(=O)NC[C@@H](NC(=O)CCC(=O)O)c1ccccc1)CC2`, for which the Activity entry with Mus musculus [3] is “significant activity”. Moreover, the IC50 with NCI-H345 was 2 nM.
